Assays:
[1] = Particle size and polydispersity index of nanoparticle compositions (Zetasizer Nano ZS); type: physicochemical
In short: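 Measured in 1×PBS by Zetasizer Nano ZS.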

[2] = Encapsulation efficiency of RNA (QUANT-IT RIBOGREEN RNA assay); type: physicochemical
In short: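 RiboGreen fluorescence (ex ~480, em ~520 nm) measured after 15 min at 37 °C on samples at ~5 μg/mL in TE, pH 7.5, ± 2% Triton X-100 solution. After blank subtraction, free RNA is given as intact-sample signal divided by disrupted-sample signal.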

[3] = pKa of nanoparticle compositions; type: physicochemical; details: Table 1; rows without footnote mark
LDL-c = assay: LDL levels in LDLr−/− mice after mRNA encoding the LDL receptor; type: in vivo, LDLR knockout mice; details: Mus musculus; Table 7b; LDLr−/− mice, 0.5 mpk, LDLr; read-out: LDL levels lipid/untreated LDLr−/− mice 0.5 mpk, LDLr
[4] = Concentration of RNA in nanoparticle composition (ultraviolet-visible spectroscopy); type: physicochemical; details: Table 5; hEPO mRNA; 40:20:38.5:1.5 Lipid:DOPE:Chol:PEG-DMG
Protocol: Ultraviolet-visible spectroscopy can be used to determine the concentration of a therapeutic and/or prophylactic agent (e.g., RNA) in nanoparticle compositions. 100 μL of the diluted formulation in 1×PBS is added to 900 μL of a 4:1 (v/v) mixture of methanol and chloroform. After mixing, the absorbance spectrum of the solution is recorded, for example, between 230 nm and 330 nm on a DU 800 spectrophotometer (Beckman Coulter, Beckman Coulter, Inc., Brea, Calif.). The concentration of therapeutic and/or prophylactic agent in the nanoparticle composition can be calculated based on the extinction coefficient of the therapeutic and/or prophylactic agent used in the composition and on the difference between the absorbance at a wavelength of, for example, 260 nm and the baseline value at a wavelength of, for example, 330 nm.

IL-6 = assay: Cytokine production induced by sample formulations: IL-6; type: in vivo; details: Table 4; mice, i.v., 0.5 mpk, 6 hours; in pg/mL (unit assumed)
In short: (§1)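 Cytokine levels were quantified at 6 hours in mice given the nanoparticle compositions i.v. at 0.5 mpk. MC3 standard formulation and PBS served as comparators.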

[5] = test system: luciferase (Luc) mRNA expression; assay: Expression of Luc induced by sample formulations, whole-body bioluminescence after intravenous administration; type: in vivo; details: Table 2, mice, i.v., 0.5 mg/kg
In short: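 Read-out is whole-body bioluminescence at 3, 6 and 24 h after a single intravenous dose of 0.5 mg/kg Luc mRNA in nanoparticle formulations. Groups of n=6 mice; PBS and standard MC3 formulation as references.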

IP-10 = assay: Cytokine production induced by sample formulations: IP-10; type: in vivo; details: Table 4; mice, i.v., 0.5 mpk, 6 hours; in pg/mL (unit assumed)
In short: as §1

[6] = test system: modified luciferase expression; assay: Expression of Luc in different organs (liver, lung, spleen, femur) 6 hours after intravenous administration; type: in vivo; details: i.v., 0.5 mpk
Protocol: The efficacy of the nanoparticle compositions presented in Tables 1, 1a, 17-1, 19-1, 20-1 and 21-1 was further evaluated by measuring the expression of modified luciferase in the liver, lung, spleen, and femur upon administration of a given composition. Formulations were administered intravenously to mice (n=3) at a dosage of 0.5 mpk and bioluminescence measured after 6 hours. The standard MC3 formulation and a PBS control were also tested.

hEPO mRNA expression = assay: Expression of hEPO in rats after intravenous administration; type: in vivo; details: Table 6; rats, i.v., 0.2 mg/kg or 0.5 mg/kg, 6 hours
Protocol: PBS (phosphate buffered saline) is used as control.
Formulations were prepared according to Table 5 and included mRNA encoding hEPO.
[…] After the 48 hour time point, livers and spleens were harvested and frozen.

[7] = Lipid clearance: % dose remaining in mouse liver 6 h and 24 h after administration of nanoparticle compositions; type: in vivo, CD-1 mice; details: Table 7c
Excerpt: (§2) In contrast, hEPO expression in rats induced by administration of a nanoparticle composition including a compound according to one of formulae (I), (Ia1)-(Ia6), (Ib), (II), (IIa), (III), and (IIIa) was substantially […] than that measured for MC3. […] Table 7c and 7d show additional protein expressions and clearance data from compositions with various compounds disclosed herein as compared to with MC3.

Luc expression = Luc expression in CD-1 mice (AUC relative to MC3); type: in vivo; details: Table 7c
Protocol: FIG. 15 is a graph summarizing luciferase expression levels at 6 h after administration of nanoparticle compositions containing compounds of the disclosure to CD-1 mice at a dose of 0.5 mpk. Total light flux values were acquired via body luminescent imaging (BLI) 6 h after administration. In this Figure, the numbers 1-7 and 10 refer to the compositions containing Compounds 4-10 and MC3 respectively.
as §2

[8] = Table 1, rows without footnote mark
[9] = Table 1, rows without footnote mark (lipid:DOPE:cholesterol:PEG-DMG 40:20:38.5:1.5, Luc mRNA; MC3 standard formulation)
[10] = Table 5, hEPO mRNA, 40:20:38.5:1.5 Lipid:DOPE:Chol:PEG-DMG

Row | SMILES | PDI [1, 8] | Size (nm) [1, 9] | EE (%) [2, 8] | pKa [3] | response vs control in vivo at 0.5 mg/kg (LDL-c) | PDI ([1]; Table 1b) | Size (nm) ([1]; Table 1b) | EE (%) ([2]; Table 1b) | % Dose Remaining 6 hr [7] | % Dose Remaining 24 hr [7] | AUC (p/s*h) (Luc expression) | further results
1 | CCCCCCCCCCCCN(CCN(CCCCCCCCC)CCCCCCCCC)CC(=O)N1CCN(C(=O)CN(CCCCCCCCC)CCCCCCCCC)CC1 [Compound 5, 2-(Dinonylamino)-1-(4-(N-(2-(dinonylamino)ethyl)-N-dodecylglycyl)piperazin-1-yl)ethan-1-one] | 0.140 | 85.1 nm | 98.1% | 7.01 | 47% | – | – | – | – | – | – | –
2 | CCCCCCCCCCCCN(CCCCCCCCCCCC)CCN(CCCCCCCCC)CC(=O)N1CCN(C(=O)CN(CCCCCCCCC)CCCCCCCCC)CC1 [Compound 6, 2-((2-(Didodecylamino)ethyl)(nonyl)amino)-1-(4-(dinonylglycyl)piperazin-1-yl)ethan-1-one] | 0.160 | 81.4 nm | 98.9% | 6.62 | 91% | – | – | – | – | – | – | –
3 | CCCCCCCCCCCCN(CCCCCCCCCCCC)CCN(CCCCCCCCCCCC)CC(=O)N1CCN(C(=O)CN(CCCCCCCCC)CCCCCCCCC)CC1 [Compound 7, 2-((2-(Didodecylamino)ethyl)(dodecyl)amino)-1-(4-(dinonylglycyl)piperazin-1-yl)ethan-1-one] | 0.130 | 85.1 nm | 99.1% | 6.94 | 63% | – | – | – | – | – | – | –
4 | CCCCCCCCCCCCN(CCCCCCCCCCCC)CC(=O)N1CCN(C(=O)CN(CCCCCCCCC)CCN(CCCCCCCCC)CCCCCCCCC)CC1 [Compound 8, 2-(Didodecylamino)-1-(4-(N-(2-(dinonylamino)ethyl)-N-nonylglycyl)piperazin-1-yl)ethan-1-one] | 0.110 | 83.3 nm | 98.5% | 6.87 | 66% | – | – | – | – | – | – | –
5 | CCCCCCCCCCCCN(CCCCCCCCCCCC)CC(=O)N1CCN(C(=O)CN(CCCCCCCCCCCC)CCN(CCCCCCCCC)CCCCCCCCC)CC1 [Compound 9, 2-(Didodecylamino)-1-(4-(N-(2-(dinonylamino)ethyl)-N-dodecylglycyl)piperazin-1-yl)ethan-1-one] | 0.170 | 78.0 nm | 99.5% | 6.76 | 87% | – | – | – | – | – | – | –
6 | CCCCCCCCCCCCN(CCCCCCCCCCCC)CCN(CCCCCCCCC)CC(=O)N1CCN(C(=O)CN(CCCCCCCCCCCC)CCCCCCCCCCCC)CC1 [Compound 10, 2-(Didodecylamino)-1-(4-(N-(2-(didodecylamino)ethyl)-N-nonylglycyl)piperazin-1-yl)ethan-1-one] | 0.130 | 81.3 nm | 99.2% | 6.58 | 98% | – | – | – | – | – | – | –
7 | CCCCCCCCCCCCCCN(CCCCCCCCCCCCCC)CCN1CCN(CCN(CCCCCCCCC)CCN(CCCCCCCCC)CCCCCCCCC)CC1 [Compound 20, N^1-(2-(4-(2-(Ditetradecylamino)ethyl)piperazin-1-yl)ethyl)-N^1,N^2,N^2-trinonylethane-1,2-diamine] | 0.150 | 106.4 nm | 84.2% | 6.12 | – | – | – | – | – | – | – | Conc. [4]: 1264.28 µg/mL; PDI [1, 10]: 0.14; Size (nm) [1, 10]: 114.5 nm; EE (%) [2, 10]: 94.39%; IL-6 (IL-6): 127; Total Flux 3 hours ([5]; 3 hours): 1.00E+11; Total Flux 6 hours ([5]; 6 hours): 1.11E+11; Total Flux 24 hours ([5]; 24 hours): 4.60E+09; IP-10 (IP-10): 2080; Total Flux Femur ([6]; Table 3, mice, femur): 8.91E+06; Total Flux Liver ([6]; Table 3, mice, liver): 1.42E+10; Total Flux Lung ([6]; Table 3, mice, lung): 1.46E+08; Total Flux Spleen ([6]; Table 3, mice, spleen): 6.11E+07; total flux in organs, rank or organ comparison (in words) ([6]; mice, each organ or overall): highest total flux; hEPO (pg/mL) 6 hours (hEPO mRNA expression): 227420 pg/mL
8 | CCCCCCCCCN(CCCOC(=O)CCCCC)CCC1CCN(C(=O)CN(CCCCCCCCC)CCN(CCCCCCCCC)CCCCCCCCC)CC1 [Compound 61, 3-((2-(1-(N-(2-(Dinonylamino)ethyl)-N-nonylglycyl)piperidin-4-yl)ethyl)(nonyl)amino)propyl hexanoate] | – | – | – | – | – | 0.23 | 86.8 nm | 99.1% | 1.31% | 0.13% | 4.65E+11 p/s*h | –
9 | CCCCCCCCCN(CCCC(=O)OCCCCC)CCN(CCCCCCCCC)CC(=O)N1CCN(C(=O)CN(CCCCCCCCC)CCCC(=O)OCCCCC)CC1 [Compound 71, Pentyl 4-(nonyl(2-(4-(N-nonyl-N-(2-(nonyl(4-oxo-4-(pentyloxy)butyl)amino)ethyl)glycyl)piperazin-1-yl)-2-oxoethyl)amino)butanoate] | – | – | – | – | – | 0.18 | 99.9 nm | 91.0% | 12.39% | 9.25% | 1.77E+11 p/s*h | –
10 | CCCCCCCCCN(CCCCCCCCC)CCN(CCCCCCCCC)CC(=O)N1CCN(C(=O)CN(CCCC(=O)OCCCCC)CCCC(=O)OCCCCC)CC1 [Compound 72, Dipentyl 4,4′-((2-(4-(N-(2-(dinonylamino)ethyl)-N-nonylglycyl)piperazin-1-yl)-2-oxoethyl)azanediyl)dibutyrate] | – | – | – | – | – | 0.22 | 102.5 nm | 92.7% | 7.06% | 6.40% | 6.53E+10 p/s*h | –
